Source: patent US20050209231A1, “Compositions and methods for inducing cardiomyogenesis” (priority 2004, published 2005)

Legend:
P19CL6 cells = assay: MHC expression by immunostaining (anti-MHC antibody MF20), secondary assay for differentiation; type: cell-based, murine; conditions: for Optimal Activity: % cells positive for MHC after 7 days; for EC50: Mus musculus, P19CL6, inducing MHC expression
Method: MHC is one of the essential motor proteins responsible for cardiac muscle contractibility and was used as a secondary assay for differentiation. […] The P19CL6 cell line is a subclone of P19 EC cells with higher potential for cardiomyogenesis. See Habara-Ohkubo, Cell Struct. Funct., 21:101-110 (1996). MHC expression was determined in P19CL6 cells by immunostaining cells with anti-MHC antibody (MF20) (FIG. 2F).
The optimal activities of the cardiogenols in Table 1 are indicated by a series of "+" signs, as follows: ++: 10-25% cells are positive for MHC after 7 days; +++: 25-40% cells are positive for MHC after 7 days; ++++: 40-55% cells are positive for MHC after 7 days.

[1] = Toxicity of the cardiogenols (Table 1); type: cell-based, murine; conditions: mouse, P19CL6 cells
R1 mouse ESCs = assay: Differentiation of undifferentiated R1 ESCs in monolayer into cardiac muscle (immunostaining of MHC, GATA-4, MEF2, Nkx2.5; beating); type: cell-based
Method: FIG. 2. Immunostaining of cardiac muscle markers in ESCs (A to E) and P19CL6 cells (F) treated with 0.25 μM cardiogenol C: (A) and (F) Myosin Heavy Chain (green); (B) GATA-4 (red); (C) MEF2 (red); (D) Nkx2.5 (red); and (E) Myosin Heavy Chain (green) and MEF2 (red). Cell nuclei were stained with DAPI (blue). Cells were fixed with 4% paraformaldehyde (Sigma) for 20 min. Cell staining was performed in PBS (Gibco) with 0.3% Triton X-100 and 6% horse serum. Primary antibodies were used at the following dilutions: myosin heavy chain (MHC) mouse monoclonal antibody MF20 (Developmental Studies Hybridoma Bank, 1:200), rabbit polyclonal anti-GATA-4 antibody (Santa Cruz Biotech, 1:300), rabbit anti-MEF2 antibody (Santa Cruz Biotech, 1:100) and goat anti-Nkx2.5 antibody (Santa Cruz Biotech, 1:100). Secondary antibodies were Cy2-conjugated anti-mouse (1:300), or Cy3-conjugated anti-rabbit or anti-goat antibodies (Jackson ImmunoResearch, 1:500). Cell nuclei were stained with DAPI (Roche). Images were taken with a Nikon Eclipes TE2000 microscope with 200-fold magnification. Double or triple-labeled images were assembled in Metamorph.
To confirm that these compounds are general cardiomyogenesis inducing agents, their effects on undifferentiated R1 mouse ESCs were analyzed. R1 mouse ESCs can be maintained in a pluripotent state with the addition of leukemia inhibitory factor (LIF) in the culture medium. The embryonic stem cell line R1 was cultured in gelatin-coated tissue culture dishes with Knockout DMEM with 15% ES serum replacement, 1 mM L-glutamine (from Gibco), 1% nonessential amino acids stock, 1% nucleosides stock, 0.1 mM […] (from Specialty Media) and 1000 units/mL of leukemia inhibitory factor (LIF, from Chemicon).
For differentiation, R1 cells were plated in a monolayer (10000 cells/well) in gelatin-coated 384-well or 96-well plates with 100 μL of DMEM with 10% FBS and 0.25 μM of compounds. LIF was not present during differentiation. After 7 days in culture (3 days with compounds and then, after changing the medium without additional compound added, another 4 days), the presence of beating cardiac muscle was visualized under a microscope. In addition to the expression of MHC (FIG. 2A), the cardiac specific gene, GATA-4, was detected by immunofluorescent staining using anti-GATA4 antibody (FIG. 2B).
Cardiogenol C has a […] aniline substituting at the pyrimidine C2 position and is very potent with an EC50 of 0.1 μM for inducing the differentiation of MHC positive cardiomyocytes from ESCs. […] See Boheler et al., Circ. Res., 91:189-201 (2002). […] This is in contrast to the current standard method of inducing cardiomyogenesis of ESCs by aggregation and formation of EBs, which results in only 5% of the cell population forming cardiomyocytes. See Boheler et al., (2002).
To further characterize the activity of Cardiogenol C, the expression of the cardiac muscle cell specific transcription factors MEF2 and Nkx2.5 was examined (FIGS. 2C and D). Members of the MEF2 family are essential for muscle development. See, e.g., Edmondson, et al., Development, 1251-1263 (1994); Lin et al., Science, 276:1404-1407 (1997). Nkx2.5 together with GATA-4 regulates the expression of multiple cardiac muscle specific genes (e.g., myosin light chain 2V, atria natriuretic factor, eHAND and homeodomain transcription factor HOP). See, e.g., Small et al., Cell, 110:725-735 (2002); Shin et al., Cell, 110:725-35 (2002). Moreover, the targeted interruption of Nkx2.5 gene is embryonic lethal and results in arrest of cardiac development. See, e.g., Lyons et al., Genes Dev., 9:1654-66 (1995). Approximately 90% of cardiogenol C treated cells stain positive for MEF2 and Nkx2.5, further confirming that ESCs are differentiated into cardiac muscle by cardiogenol C.

R1 cells = assay: Cellular toxicity and cell death in R1 cells; type: cell-based
[2] = R1 cells, 0.25 μM compound for 3 days, then 4 days in medium without compound

OCCNc1ccnc(Nc2ccc(Nc3ccccc3)cc2)n1 [Cardiogenol A]
Optimal Activity (P19CL6 cells): ++ (10-25% cells are positive for MHC after 7 days)
EC50 (P19CL6 cells): 1000 nM
EC50 [1]: 5000 nM

OCCNc1ccnc(Nc2ccc(Oc3ccccc3)cc2)n1 [Cardiogenol B]
Optimal Activity (P19CL6 cells): +++ (25-40% cells are positive for MHC after 7 days)
EC50 (P19CL6 cells): 500 nM
EC50 [1]: 5000 nM

COc1ccc(Nc2nccc(NCCO)n2)cc1 [Cardiogenol C]
Optimal Activity (P19CL6 cells): ++++ (40-55% cells are positive for MHC after 7 days)
EC50 (P19CL6 cells): 100 nM
EC50 [1]: 25000 nM
treated cells stain positive for MEF2 (R1 mouse ESCs; ESCs): Approximately 90%
treated cells stain positive for Nkx2.5 (R1 mouse ESCs; ESCs): Approximately 90%
EC50 (R1 mouse ESCs; Mus musculus, Cardiomyocyte, read-out: EC50 for inducing the differentiation of MHC positive cardiomyocytes from ESCs): 100 nM
beating areas (functional cardiac muscle) (R1 mouse ESCs; R1 cells treated with compound): many beating areas
cells positive for GATA-4 (R1 mouse ESCs; [2]): more than 90%
cells stained positive for MHC (R1 mouse ESCs; [2]): more than 50%
concentration showing significant cellular toxicity (R1 cells): greater than 25 μM

OCCNc1ccnc(Nc2ccc(/C=C/c3ccccc3)cc2)n1 [Cardiogenol D]
Optimal Activity (P19CL6 cells): ++++ (40-55% cells are positive for MHC after 7 days)
EC50 (P19CL6 cells): 100 nM
EC50 [1]: 2500 nM
